Experiments:
[1] = tested on: TGF-β; experiment: TGF-β inhibitor screening, 3TP-pGL2 luciferase reporter in transformed HEK 293 cells; type: cell-based, human; conditions: compound added 2 h before 0.5 ng/ml TGF-β, FIGS. 3a, 3b
Text: In order to screen an agent for inhibiting TGF-β cells stably transformed by luciferase-expressing plasmids were used to measure an effect on TGF-β activity.
A plasmid with a Smad binding site and a […] activator inhibitor (PAI) promoter, obtained from professor Carlos Arteaga at the University of Vanderbilt in US, was inserted into pGL2-Null reporter plasmid (Promega, U.S.A.). […] The plasmid was used to transform human embryonic kidney (HEK) 293 cells according to the manufacturer s specification, using Lipofectamine 2000 (Invitrogen, Calsbad, CA, USA), thereby constructing a system for screening an effect on TGF-β activity by measuring luciferase activity. The activity of luciferase was measured using a Dual Luciferase Assay kit (Promega, Medison, WI, USA). […]
The HEK 293 cells transformed were inoculated into a 96-well plate at 20,000 cells/ well in triplicates and then incubated under the condition as described above for 24 hours. Then, TGF-β was added thereto at concentrations of 0.5, 1, and 5 ng/ml and after 15-hour incubation, luciferase activity was measured. […]
By using the screening system as described above, a TGF-β inhibition effect was tested on 8,000 compounds in a compound library. […] Then, the luciferase activity was measured as described above. […]

[2] = tested on: HEK 293 cells; experiment: Cytotoxicity test, CCK-8 assay; type: cell-based, human; conditions: CCK-8, absorbance 450 nm, FIGS. 4a, 4b
Protocol: In order to confirm that the luciferase activity is inhibited due to TGF-β inhibitor, rather than apoptosis, a CCK-8 survival rate assay kit (Dojindo, Japan) was used and an absorbance was measured at a wavelength of 450 nm by using a spectrophotometer (Labsystems, U.S.A.) to count the number of cells. The shown values are average values obtained from three independent experiments.

[3] = tested on: HSC-T6 cells; experiment: Serum-induced proliferation of hepatic stellate cells, CCK-8 assay; type: cell-based, human; conditions: added 2 h before serum, 48 h
Protocol: HSC-T6 cells, a stable cell line made by professor S.L. Friedman at Mount Sinai in U.S. A., were obtained and used as hepatic stellate cells (HSC), which are employed mainly as a subject for liver fibrosis. HSC-T6 cells were c under 5% CO2 at a temperature of 37°C in a DMEM supplemented with 10% FBS, 100 units/ml of penicillin, and 100 µg/ml of streptomycin. In order to identify whether compounds I and II directly affect proliferation of hepatic stellate cells, the incubation was performed in a serum-free medium for 24 hours and then the culture was treated with 1, 10, and 20 µM of the compounds I and II, 2 hours prior to addition of serum thereto. Subsequently, under the condition described above, the incubation was further performed for 48 hours and then a CCK-8 assay kit was used to measure cell viability. Absorbance was measured at a wavelength of 450 nm by using a spectrophotometer (Labsystems, U.S.A.) to count the number of cells.

[4] = tested on: HSC-T6 cells; experiment: Western blotting of fibrosis markers in TGF-β-treated hepatic stellate cells; type: cell-based, human; conditions: HSC-T6, 0, 1, 5 and 10 µM added 2 h before TGF-β (5 ng/ml), 24 h; FIGS. 6a, 6b
Protocol: In addition, levels of α-smooth muscle actin (α-SMA) and extracellular matrix material fibronectin, which are typically used as a fibrosis molecular marker to identify fibrosis of hepatic stellate cells, were measured by western blotting. Two hours before the treatment with TGF-β(5 ng/ml), each of compounds I and II was added at a varying concentration (0, 1, 5 and 10 µM) to the HSC-T6 cells incubated under the conditions described above, and then, the HSC-T6 cells were incubated under 5% CO2, and at a temperature of 37°C. After 24-hour incubation, the HSC-T6 cells were dissolved in a RIPA buffer solution (50 mM Tris-Cl (pH7.4), 1% NP-40, 150 mM NaCl, 1 mM EDTA) including a protease inhibitor (1 mM PMSF, […] aprotinin, […] leupeptin, and 1 mM Na3VO4) to prepare cytoplasm fractions, and 4-12% gradient SDS-PAGE (Invitrogen) was performed on the cytoplasmic fractions to separate proteins. The proteins separated on the SDS-PAGE gel were transferred to a nitrocellulose membrane (BioRad, Hercules, CA, USA) and the membrane was blocked with 5% skim milk. Then, the membrane was treated with an anti-α-SMA antibody (Sigma, U.S.A.), an anti-fibronectin antibody (Santa Cruz, U.S.A.), and an anti-GAPDH antibody (Ab Frontier, Korea). […]

[5] = tested on: U87-MG; experiment: Apoptosis of brain cancer cells alone or with doxorubicin, CCK-8 viability assay; type: cell-based; conditions: 48 h; for apoptosis effect together with doxorubicin: compound added 2 h before doxorubicin 0.05 µM; for apoptosis: compound alone at 5 µM or more, FIGS. 9b, 9d
Protocol: TGF-βis known to have contrasting effects related to a tumor. That is, at an initial stage, TGF-β suppresses tumor growth, but at a latter stage, promotes metastasis or infiltration of a tumor. Thus, apoptosis of tumor cell lines caused by compound I and II, and apoptosis of tumor cell lines caused by compound I or II in combination with doxorubicin, an anti-cancer agent, were measured. […] The tumor cells were treated with compound I or II at the concentrations shown in FIG. 9, and 2 hours later, doxorubicin was added thereto. Then, the cells were incubated for 48 hours under the conditions described above and then, quantified using a CCK-8 viability assay kit (Dojindo, Japan).

[6] = tested on: H1299 cells; experiment: Apoptosis alone or with radiation, Annexin-PI staining and FACS assay; type: cell-based; conditions: 48 h; for effect on apoptosis together with radiation compared to compound or radiation alone: H1299, 6 Gy
Protocol: H1299, a cell strain of lung cancer, which is generally treated by radiation therapy, was treated with radiation in combination with compound I or II, and apoptosis thereof was measured. Compound I or II was added to H1299 cells inoculated to a 6 cm cell incubation plate as described in Example 3, and two hours later, 6 Gy of radioactive rays were irradiated thereto, and 48 hours later, apoptosis was measured by Annexin-PI staining and FACS assay. […] Table 2 [Table 2]

[7] = H1299, compound 5 µM + radiation (6 Gy) 2 h later

| SMILES | TGF-β activity (luciferase activity) [1] | cell count (cytotoxicity) [2] | proliferation of hepatic stellate cells ([3]; 1, 10 and 20 µM, FIG. 5a) | expression of α-SMA and fibronectin (fibrosis markers) [4] | apoptosis effect together with doxorubicin [5] | apoptosis [5] | effect on apoptosis together with radiation compared to compound or radiation alone [6] | Apoptosis (%, average±SEM) [6, 7] | Apoptosis (%, average±SEM) ([6]; H1299, compound 5 µM alone) | inhibition at 1 µM ([3]; Homo sapiens, HSC-T6, 1 µM, FIG. 5b, read-out: proliferation of hepatic stellate cells inhibited) | inhibition at 10 µM ([3]; Homo sapiens, HSC-T6, 10 µM, FIG. 5b, read-out: proliferation of hepatic stellate cells inhibited) | inhibition at 20 µM ([3]; Homo sapiens, HSC-T6, 20 µM, FIG. 5b, read-out: proliferation of hepatic stellate cells inhibited) |
| --- | --- | --- | --- | --- | --- | --- | --- | --- | --- | --- | --- | --- |
| Cc1cn2c(nc3c2c(=O)n(Cc2ccccc2Cl)c(=O)n3C)[nH]1 [compound I, 3-(2-chlorobenzyl)-1,7-dimethyl-1H-imidazo[2,1-f]purine-2,4(3H,8H)-dion] | inhibit TGF-β activity in a concentration-dependent way | no significant decrease in the cell count | almost completely blocked | concentration-dependently reduced | additive or synergistic apoptosis effects | did not occur | synergistic effect on apoptosis | 73.42±1.84% | 20.86±1.03% | – | – | – |
| Cc1[nH]c2nc3c(c(=O)n(Cc4c(F)cccc4Cl)c(=O)n3C)n2c1C [compound II, 3-(2-chloro-6-fluorobenzyl)-1,6,7-trimethyl-1H-imidazo[2,1-f]purine-2,4(3H,8H)-dion] | inhibit TGF-β activity in a concentration-dependent way | no significant decrease in the cell count | – | significantly reduced fibrosis markers | additive or synergistic apoptosis effects | did not occur | synergistic effect on apoptosis | 55.91±5.58% | 14.79±0.78% | 12% | 25% | 30% |

Source: patent publication EP2488183B1, “Composition for inhibiting TGF-beta comprising imidazopurine derivatives” (Korea Institute of Radiological & Medical Sciences, priority 2009, dated 2011)
